Measured values reported in US20220186210A1, “METHOD FOR I[…]” (priority 2019, published 2022).

How the values were obtained:
[1] = tested on: HeLa cells with PSMB5 point mutations; experiment: Pooled ssODN point-mutation validation, Bortezomib resistant colonies (MTT viability); format: cell-based; settings: bortezomib 8 ng/ml, 72 hour, FIG. 9D
Method: For the validation of critical mutations of PSMB5 and PLK1, sgRNAs were designed near the mutation site, and each 119 nt ssODN donor encoded one amino acid substitution for a validated residue. All sgRNAs (sgRNA sequences for the validation of critical mutations) and ssODN donor sequences (ssODN donors encoded one amino acid substitution for a validated residue) are listed in Table 2 as follows.
HeLa cells were transfected with 1 μg of sgRNA and 2 μg of the ssODN donor in six-well plates. Fourteen days after transfection, 1.5×10^5 cells were seeded in six-well plates 24 hour before drug selection. […] The genomes of drug-resistant cells were extracted using the TIANamp Genomic DNA Kit (TIANGEN).
(§1) Because missense point mutations were the predominant formats conferring drug resistance for both PSMB5 and PLK1, we decided to employ ssODN-mediated method^(24) to create specific point mutations instead of deletions for validation. We selected nine amino acid residues (R78, T80, V90, M104, A108, D110, C111, C122 and G242) in PSMB5, among which D110 and C111 were included as controls. To choose a proper amino acid for point mutation, the mutant types from screening results or previous reports were preferential choices. […] It remains to be determined how V90 mediates drug sensitivity and whether V90 alteration changes the structure around Bortezomib binding pocket.

[2] = tested on: HeLa cell clones with PSMB5 point mutations; experiment: Cell viability assay of single clones with PSMB5 point mutations; format: cell-based; settings: single clones with PSMB5 R78N, V9OL, A108T, C122F, G242D; FIG. 9E
Method: Cells were seeded in 96-well plates 24 hour before drug or toxin treatment (5,000 cells for diphtheria toxin (DT) and 3,000 cells for bortezomib), and different concentrations of bortezomib or DT were added. Cells were incubated at 37° C. for 48 hour (DT) or 72 hour (bortezomib) before the addition of 1 mg/ml of MTT (3-[4,5 -dimethylthiazol-2-yl]-2,5 -diphenyltetrazolium bromide). Spectrophotometer readings at 570 nm were collected using BioTek Cytation5 (BioTek Instruments).
as §1, with “choices. For the rest, we made all the substitution to alanine (Table 2).” for “choices.”

Question: What does the source list for `CC(C)C[C@H](NC(=O)[C@H](Cc1ccccc1)NC(=O)c1cnccn1)B(O)O` [Bortezomib]?
Answer: Bortezomib resistant colonies ([1]; PSMB5 control mutations D110A and C111A): failed to produce Bortezomib resistant colonies; Bortezomib resistant colonies ([1]; PSMB5 mutations R78N, T80A, V90A, M104A, A108T, C122F, G242D): produced variable number of Bortezomib resistant colonies; cell susceptibility to Bortezomib [2]: conferred Bortezomib resistance
